Results as given in paper PMC10534891, “Evaluation of 4-Aminoquinoline Hydrazone Analogues as Potential Leads for Drug-Resistant Malaria” (Molecules, 2023).

How the values were obtained:
P. falciparum Dd2 strain = experiment: P. falciparum Dd2 dose-response, 72 h, SYBR Green-based plate reader assay; format: cell-based; settings: Plasmodium falciparum, ring stage, read-out: Dd2 IC50 ± SE
Method: (§1) The lead compounds 1 and 2 were further evaluated against the chloroquine-resistant P. falciparum Dd2 strain and chloroquine-sensitive P. falciparum 3D7. The drug activity assay was initiated on 1% infected blood at ring stages of the parasites at four-fold serial dilution from 0.00305 to 200 µM. The growth was measured after 72 h using an SYBR Green-based plate reader assay.
(§2) In total, 1% of infected RBCs at the ring or trophozoites stage was exposed to nine dilutions (four-fold serial dilution) of compounds from 50 mM stock solutions in DMSO. A total of 100 µL of culture volume was added in 96-well plates with 100 µL drug dilutions. Plates were either incubated for 48 h or 72 h at 37 °C, 5% CO2, 5% O2 in N2. Following the incubation, 150 µL of the medium was carefully removed and 150 µL of the 5× SYBR Green solution (prepared by adding 2 µL of 10,000× SYBR Green in 4 mL of PBS) was added to each well. Plates were kept in the dark for 45 min. Fluorescence intensity was measured using a microplate reader (Genius Tecan) with an excitation of 485 nm and an emission of 535 nm.

HepG2 cells = experiment: MTT cytotoxicity assay, HepG2; format: cell-based, Human; settings: HepG2 IC50 (5 days) / K1 72 h IC50; IC50 = 25 μM assumed for compound 13
Method: (§3) An MTT (3-(4,5-dimethylthiazol-2-yl)-2,5-diphenyl tetrazolium bromide) assay was performed to investigate the toxicity of the 4-aminoquinoline hydrazone compounds. HepG2 and MDBK cells were incubated with a two-fold serial dilution at dose ranges from 0.39 to 25 µM for 5 days.
(§4) Human hepatoma (HepG2) and the Madin–Darby bovine kidney (MDBK) cell lines were purchased from American Type Culture Collection (ATCC), USA. The MDBK cell line was cultured with Dulbecco’s Modified Eagle’s Medium (DMEM) containing 4.5 g/L (+)-D-glucose and L-glutamine, while the HepG2 cell line was cultured with RPMI 1640 containing 2 mM L-glutamine and HEPES. The culture medium was supplemented with 10% Fetal Bovine Serum (FBS) and 1% penicillin. Cells were maintained in the presence of 5% CO2 atmosphere at 37 °C. The assay was carried out on a 96-well plate, with each well containing 4 × 10^3 cells. Plates were firstly incubated for 24 h at 37 °C to ensure cell adherence. The cells were then treated with 100 µL of the drug solution prepared at various concentrations and further incubated for 5 days. After the incubation period, 50 µL of the MTT (3-(4,5-dimethylthiazol-2-yl)-2,5-diphenyltetrazolium bromide, Sigma, UK) solution was added to each well and incubated for a further 3 h. The MTT solution and medium were aspirated, 150 µL of DMSO was added to each well, and the results were read on the Ascent plate reader.

[1] = MTT cytotoxicity assay, HepG2; format: cell-based, Human; settings: human, HepG2 cells; MTT, 5 days; read-out: Cell Toxicity IC50 ± SE HepG2
Method: as §3, §4

P. falciparum 3D7 = P. falciparum 3D7 dose-response, 72 h, SYBR Green-based plate reader assay; format: cell-based; settings: Plasmodium falciparum, ring stage, read-out: 3D7 IC50 ± SE
Method: as §1, §2

[2] = MTT cytotoxicity assay, MDBK; format: cell-based, bovine; settings: bovine, MDBK cells; MTT, 5 days; read-out: Cell Toxicity IC50 ± SE MDBK
Method: as §3, §4

MDBK cells = experiment: MTT cytotoxicity assay, MDBK; format: cell-based, bovine; settings: MDBK IC50 (5 days) / K1 72 h IC50; IC50 = 25 μM assumed for compounds 5 and 13
Method: as §3, §4

P. falciparum K1 strain [3] = experiment: P. falciparum K1 asexual growth inhibition, 48 h, SYBR Green-based plate reader assay; format: cell-based, Plasmodium falciparum; settings: K1 strain, trophozoite stage, 48 h incubation; for IC50: Plasmodium falciparum, read-out: Plasmodium IC50 ± SE
Method: Sixteen 4-amino-6-methoxy-quinoline hydrazone compounds (see Figure S1, Supplementary Materials for full structures), with methyl and phenyl substituents at the 2-position (R = Me, Ph) and various substituents at R’ (Table 1), were tested for their antimalarial activities. A 1% parasitised culture at the trophozoite stage was treated with the compounds for 48 h at concentrations of 0.003050–200 µM (four-fold serial dilution) against the P. falciparum K1 strain, and the growth was measured using the SYBR Green-based plate reader assay.
as §2
(§5) IC50 values were determined using Graph Pad Prism 5.0. Values were calculated using non-linear regression by using log-transformed drug concentration plotted against dose–response. Parasitaemia was calculated and normalised relative to the response on the controls (cultures without drug).

P. falciparum K1 strain [4] = experiment: P. falciparum K1 dose-response, 72 h, SYBR Green-based plate reader assay; format: cell-based; settings: Plasmodium falciparum
Method: We set up drug efficacy assays for the eight lead compounds 1–5, 12–14 (selected based on the best antimalarial activities) (Table 1), with 72 h incubation on parasitised culture. A dose–response experiment was initiated on 1% synchronous culture at the ring stages of the P. falciparum K1 strain. The selected compounds were tested at three-fold serial dilutions from 6.86 to 5000 nM. […] The selectivity indices (IC50 human cells/IC50 parasites) were calculated based on the 72 h exposure studies and are presented in Table 2.
as §2, §5

P. yoelii NL = system: P. yoelii NL
Method: We next assessed the antimalarial activity of compound 2 in vivo within a P. yoelii NL murine model of blood-stage malaria. […] Two dosages of the drug were tested, 5 mg/kg and 20 mg/kg (intravenous tail vein injection), while another group of mice was administered with the drug vehicle alone (Figure 3). The lead compound 2 was injected once a day for 4 days, starting at day 11 when the infection level reached ~5% parasitaemia. Mice were monitored for a total of 20 days in order to detect signs of infection rebound or eventual toxicity.
C57BL/6 mice were purchased from Charles River, UK, and were maintained at the University of Manchester in individually ventilated cages. A total of six mice were used for this experiment and kept in the cage (two in each cage) with randomisation of mice given antimalarial drugs and vehicle control. The mice were maintained in individually ventilated cages with food and water ad libitum. Male and females were kept within separate cages during the course of the experiment. The mice generally weighed 18–20 g at the start of the experiment. Cryopreserved P. yoelii NL parasites were passed once through mice before the infection experiment. Male/female mice 6–10 weeks in age were infected with 1 × 10^4 parasitised red blood cells (pRBCs) via intravenous injection in the tail vein. Parasitaemia growth was monitored via Giemsa-stained blood smears. Three groups of mice (placebo, drug dose of 5 mg/kg or 20 mg/kg) were used for this experiment. Compound 2 was injected once a day for 4 days starting at the day the infection level reached ~5% parasitaemia. After the injection, mice were monitored for 20 days to detect eventual signs of both infection rebound and toxicity.

P. falciparum K1 strain [5] = experiment: Stage specificity assay; format: cell-based, Plasmodium falciparum; settings: 50–100 times IC50, 24 h exposure, wash-out, further 24 h
Method: The stage specificity was evaluated by conducting drug susceptibility experiments on synchronous cultures either at early rings or schizonts stages (as detailed in the Section 4). […] Cultures were exposed to drug treatment for 24 h, after which the compounds were washed out and incubated in complete RPMI medium for a further 24 h.
P. falciparum K1 was synchronised twice with 5% sorbitol at 0 h and 31 h to obtain early rings (up to 3 h old). In order to obtain late trophozoites to early schizonts, the culture was synchronised twice at 0 h and 6 h. Each synchronous stage was diluted to 1% parasitaemia. […] The dilution ranged from 1.6 to 100× fold of the previously determined IC50 of each compound in a standard 48 h assay. After a 24 h incubation period, the plates were washed 4 times resulting in about a 100-fold dilution of the free compound. The plates were further incubated for an additional 24 h at 37 °C and analysed using SYBR Green staining assays as previously described.

[6] = ring stage, 72 h incubation, read-out: Plasmodium IC50 ± SE

SMILES	Selectivity Indices (HepG2) (HepG2 cells)	IC50 at 5 days [1] [µM]	IC50 at 5 days [2] [µM]	Selectivity Indices (MDBK) (MDBK cells)	IC50 (P. falciparum K1 strain [3]) [µM]	IC50 (P. falciparum K1 strain [4]; [6]) [µM]	further results
COc1ccc2nc(C)cc(N/N=C/c3ccc(F)cc3)c2c1 [Compound 1]	34	0.872 ± 0.79	3.77 ± 1.5	147	0.612 ± 0.35	0.0257	IC50 (P. falciparum Dd2 strain): 0.133 µM; IC50 (P. falciparum 3D7): 0.183 µM; IC50 (P. falciparum K1 strain [4]; 72 h, read-out: IC50): 0.025 µM
COc1ccc2nc(C)cc(NN=Cc3ccccc3)c2c1 [Compound 2, 4-(2-benzylidenehydrazinyl)-6-methoxy-2-methylquinoline]	58	1.9 ± 0.11	3.44 ± 2.7	101	2.26 ± 2.2	0.0329 ± 0.007	IC50 (P. falciparum Dd2 strain): 0.0244 µM; Signs of toxicity in treated mice (P. yoelii NL; 5 and 20 mg/kg i.v., monitored over three weeks): no detectable signs of significant toxicity; Effect on parasitaemia, 20 mg/kg and 5 mg/kg (P. yoelii NL; P. yoelii NL-treated mice): suppression of parasitaemia; Parasitaemia after drug treatment was suspended (P. yoelii NL; mice, 5 mg/kg and 20 mg/kg i.v. once a day for 4 days): less than 4%; Effect on parasitaemia, 5 mg/kg (P. yoelii NL; mice, 5 mg/kg i.v. once a day for 4 days): delayed activity; IC50 (P. falciparum 3D7): 0.0554 µM; IC50 (P. falciparum K1 strain [4]; 72 h, read-out: IC50): 0.032 µM
COc1ccc2nc(C)cc(N/N=C/c3cccc(OC)c3O)c2c1 [Compound 5]	39	6.73 ± 0.73	> 25	>143	3.82	0.174 ± 0.03	Inhibition of parasitaemia growth, schizont stage (P. falciparum K1 strain [5]): more than 25%
COc1ccc2nc(C)cc(N/N=C/c3c[nH]cn3)c2c1 [Compound 6]		7.26 ± 1	11.7 ± 2.5		48.8		
COc1ccc2nc(C)cc(N/N=C/c3ccc([N+](=O)[O-])cc3)c2c1 [Compound 7]		1.69	6.68 ± 1.7		20.1		
COc1ccc2nc(C)cc(N/N=C/c3ccc(O)cc3)c2c1 [Compound 8]		1.97 ± 0.42	3.73 ± 1.2		22.3		
COc1ccc2nc(C)cc(N/N=C/c3ccc(C(=O)O)cc3)c2c1 [Compound 9]		> 25	> 25		> 200		Plasmodium IC50 ± SE (P. falciparum K1 strain [3]): inactive
COc1ccc2nc(C)cc(N/N=C/c3cccc(O)c3)c2c1 [Compound 10]		2.64 ± 0.2	9.71 ± 3.5		18.9		
COc1ccc2nc(C)cc(N/N=C/c3cc(O)cc(O)c3)c2c1 [Compound 11]		11.1 ± 2.9	> 25		35.9 ± 43		
COc1ccc2nc(-c3ccccc3)cc(N/N=C/c3cccc(OC)c3O)c2c1 [Compound 12]	14	1.8 ± 0.78	6.6	50	5.67 ± 13	0.133 ± 0.06	
COc1ccc2nc(-c3ccccc3)cc(N/N=C/c3ccc([N+](=O)[O-])cc3)c2c1 [Compound 14]	5	0.89 ± 0.13	4.24 ± 1		2.2 ± 1.5	0.176 ± 0.06	Inhibition of parasitaemia growth, schizont stage (P. falciparum K1 strain [5]): more than 25%
COc1ccc2nc(-c3ccccc3)cc(N/N=C/c3c[nH]cn3)c2c1 [Compound 15]		2.21 ± 0.15	9.31 ± 3.5		28.3 ± 29		
COc1ccc2nc(-c3ccccc3)cc(N/N=C/c3ccc(N(C)C)cc3)c2c1 [Compound 16]		4.15 ± 2.4	6.24		8.06 ± 4.5		
